{
  "source": "patent US20130137573A1",
  "about": "“HERBICIDAL COMPOSITIONS COMPRISING, AND METHODS OF USE OF, HERBICIDALLY ACTIVE PYRANDIONES” (priority 2009, published 2013)",
  "key": {"[1]": {"test_system": "Echinochloa crus-galli (ECHCG)", "experiment": "Biological Example 1 (Test 125): visual herbicidal damage to flooded ECHCG", "type": "in vivo", "conditions": "200 g/ha fenoxasulfone applied alone, 14 DAA", "experimental": "(§1) Rice seeds, variety IR-64 (an indica type of rice), were sown in seed trays. After 7 days the resulting plants were transplanted as 3 groups of 2 plants, into pots containing a standard sandy loam soil saturated with water replicating swampy conditions. These were grown on for a further 9 days in a glasshouse bay (30/20° C. day/night; 18/6 hours light/dark; 75% humidity). Leptochloa chinensis (LEFCH) and Echinochloa crus-galli (ECHCG) were sown as 2 separate groups of approx 10-20 seeds into pots 13 days prior to application of the test substances, in the same glasshouse conditions as the rice. Therefore, each pot of weeds contained a group of LEFCH and a separate group of ECHCG. All pots of rice and all pots of weeds were flooded to 2-3 cm water depth the day prior to application of the test substances. Growth stages at time of application were as follows: Rice: from 2 leaves on the main stem up to tillering; ECHCG: from 2 leaves on the main stem up to tillering; LEFCH: 2-3 leaves.\nTest solutions were prepared by mixing the appropriate aliquots of the test substances in deionised water to give the desired treatment concentration. Most of the test substances were used as formulated products. Specifically, compound A-13 was applied as the EC050 formulation disclosed in Formulation Example 1 herein (EC=emulsifiable concentrate). Reference compound A-4 was applied as the EC050 formulation disclosed in Reference Formulation Example 2 herein. Pyroxasulfone (a comparator co-herbicide) was applied as the SC050 formulation disclosed in Reference Formulation Example 6 herein (SC=Suspension concentrate). Imazosulfuron (a comparator co-herbicide) was applied as a GR0.25 formulation (GR=granule).\nThe test substances which were pure active ingredient (e.g. propyrisulfuron & fenoxasulfone & compound A-16) (labelled as ‘Technical’ in the following results table), were prepared by dissolving in 10.56% Emulsogen EL™ (castor oil ethoxylate, CAS Registry number 61791-12-6), 42.22% N-methylpyrrolidone and 42.22% dipropylene glycol mono-ethyl ether to give a stock solution containing 5% of the test substance and 95% of (Emulsogen EL™, N-methylpyrrolidone and dipropylene glycol mono-ethyl ether).\nApplication of the test substances was made by pipetting the required amount of the test solution or the test formulation gently into the flood water of the appropriate pot.\nThe test plants were then grown on in the same glasshouse conditions, and watered twice daily keeping the flood water at a depth of 2-3 cm.\nA visual assessment of the % herbicidal damage was made 7 & 14 days after application […], and the results are presented herein as % visual herbicidal damage where 0=no damage to plants and 100=total kill."}, "[2]": {"test_system": "Leptochloa chinensis (LEFCH)", "experiment": "Biological Example 1 (Test 125): visual herbicidal damage to flooded LEFCH", "type": "in vivo", "conditions": "200 g/ha fenoxasulfone applied alone, 14 DAA", "experimental": "as §1\nTest solutions were prepared by mixing the appropriate aliquots of the test substances in deionised water to give the desired treatment concentration. Most of the test substances were used as formulated products. Specifically, compound A-13 was applied as the EC050 formulation disclosed in Formulation Example 1 herein (EC=emulsifiable concentrate). […]"}},
  "data": [
    {"smiles": "CCOc1cc(Cl)c(CS(=O)(=O)C2=NOC(C)(C)C2)cc1Cl", "note": "[fenoxasulfone, reference compound]", "values": [
      {"measurement": "ECHCG control", "setting": "[1]", "result": 65, "unit": "%"},
      {"measurement": "LEFCH control", "setting": "[2]", "result": 70, "unit": "%"}
    ]}
  ]
}
